From patent US8575156B2, “Cyclic inhibitors of 11β-hydroxysteroid dehydrogenase 1” (Vitae Pharmaceuticals, Inc., priority 2007, dated 2013)

Each molecule was assayed against T1, 11β-HSD1 (Homo sapiens, UniProt P28845) (assay: not given). Settings: 0.1 µM.
T1 sequence (P28845 whole entry): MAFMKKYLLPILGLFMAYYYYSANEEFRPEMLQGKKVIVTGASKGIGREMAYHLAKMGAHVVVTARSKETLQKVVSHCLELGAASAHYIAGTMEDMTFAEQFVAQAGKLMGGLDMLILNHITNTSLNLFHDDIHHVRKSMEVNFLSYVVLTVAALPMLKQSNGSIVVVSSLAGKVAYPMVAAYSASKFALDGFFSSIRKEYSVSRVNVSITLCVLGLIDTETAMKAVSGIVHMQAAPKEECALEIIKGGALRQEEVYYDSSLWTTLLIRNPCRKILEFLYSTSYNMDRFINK

| SMILES | Average % inhibition at 100 nM [%] |
| --- | --- |
| C[C@@H](c1ccc(-c2ccc(F)cc2)cc1)N1CC[C@](CC(O)CNS(C)(=O)=O)(c2ccc(F)cc2)OC1=O (single isomer, unassigned) [EXAMPLE 277 Isomer 1] | 91.1 |

Same assay, conditions: Biological Test Example 1; 100 nM compound; 0.1 µM

| Average % inhibition at 100 nM [%] | SMILES |
| --- | --- |
| 94.2 | CC(C)C1(CC(O)CO)CCN([C@@H](C)c2ccc(-c3ccc(F)cc3F)cc2)C(=O)O1 (single isomer, unassigned) [EXAMPLE 223 Isomer 1] |
| 97.1 | CC(C)C1(CC(O)CO)CCN([C@@H](C)c2ccc(-c3ccc(F)cc3F)cc2)C(=O)O1 (single isomer, unassigned) [EXAMPLE 223 Isomer 2] |
| 27.8 | CC(C)C1(CC(O)CO)CCN([C@@H](C)c2ccc(-c3ccc(F)cc3F)cc2)C(=O)O1 (single isomer, unassigned) [EXAMPLE 223 Isomer 3] |
| 52.5 | CC(C)C1(CC(O)CO)CCN([C@@H](C)c2ccc(-c3ccc(F)cc3F)cc2)C(=O)O1 (single isomer, unassigned) [EXAMPLE 223 Isomer 4] |
| 98.9 | C[C@@H](c1ccc(-c2ccc(F)cc2F)cc1)N1CCC(CCO)(c2cccs2)OC1=O (single isomer, unassigned) [EXAMPLE 233 Isomer 1] |
| 53.6 | C[C@@H](c1ccc(-c2ccc(F)cc2F)cc1)N1CC[C@](CC(O)CN(C)C)(c2ccc(F)cc2)OC1=O (single isomer, unassigned) [EXAMPLE 273 Isomer 1] |
| 17.9 | C[C@@H](c1ccc(-c2ccc(F)cc2F)cc1)N1CC[C@](CC(O)CN(C)C)(c2ccc(F)cc2)OC1=O (single isomer, unassigned) [EXAMPLE 273 Isomer 2] |
| 83.1 | C[C@@H](c1ccc(-c2ccc(F)cc2F)cc1)N1CC[C@](CC(O)CNC(N)=O)(c2ccc(F)cc2)OC1=O (single isomer, unassigned) [EXAMPLE 276 Isomer 1] |
| 35.4 | C[C@@H](c1ccc(-c2ccc(F)cc2F)cc1)N1CC[C@](CC(O)CNC(N)=O)(c2ccc(F)cc2)OC1=O (single isomer, unassigned) [EXAMPLE 276 Isomer 2] |
| 86.6 | C[C@@H](c1ccc(-c2ccc(F)cc2)cc1)N1CC[C@](CC(O)CN(C)S(C)(=O)=O)(c2ccc(F)cc2)OC1=O (single isomer, unassigned) [EXAMPLE 278 Isomer 1] |
| 94.1 | COc1ccc([C@H](C)N2CCC(CC(O)CO)(c3ccccc3)OC2=O)cc1 (single isomer, unassigned) [EXAMPLE 286 Isomer 1] |
| 94.5 | COc1ccc([C@H](C)N2CCC(CC(O)CO)(c3ccccc3)OC2=O)cc1 (single isomer, unassigned) [EXAMPLE 286 Isomer 2] |
| 70.5 | COc1ccc([C@H](C)N2CCC(CC(O)CO)(c3ccccc3)OC2=O)cc1 (single isomer, unassigned) [EXAMPLE 286 Isomer 3] |
| 29.3 | COc1ccc([C@H](C)N2CCC(CC(O)CO)(c3ccccc3)OC2=O)cc1 (single isomer, unassigned) [EXAMPLE 286 Isomer 4] |

Same assay, conditions: Biological Test Example 1; 100 nM; 0.1 µM

| Average % inhibition at 100 nM [%] | SMILES |
| --- | --- |
| 97.8 | COc1ccc([C@H](C)N2CCC(CCCO)(C(C)C)OC2=O)cc1 (single isomer, unassigned) [EXAMPLE 332 Isomer 1] |
| 32.2 | COc1ccc([C@H](C)N2CCC(CCCO)(C(C)C)OC2=O)cc1 (single isomer, unassigned) [EXAMPLE 332 Isomer 2] |
| 96.2 | COc1ccc([C@H](C)N2CCC(CCC(N)=O)(C(C)C)OC2=O)cc1 (single isomer, unassigned) [EXAMPLE 333 Isomer 1] |
| 9.1 | COc1ccc([C@H](C)N2CCC(CCC(N)=O)(C(C)C)OC2=O)cc1 (single isomer, unassigned) [EXAMPLE 333 Isomer 2] |
| 96.6 | CC(C)C1(CCC(N)=O)CCN([C@@H](C)c2ccc(Cl)cc2)C(=O)O1 (single isomer, unassigned) [EXAMPLE 334 Isomer 1] |
| 31.9 | CC(C)C1(CCC(N)=O)CCN([C@@H](C)c2ccc(Cl)cc2)C(=O)O1 (single isomer, unassigned) [EXAMPLE 334 Isomer 2] |
| 48.2 | C[C@@H](c1ccc(Br)cc1)N1CCC(CCCO)(C(C)(C)C)OC1=O (single isomer, unassigned) [EXAMPLE 335 Isomer 1] |
| 50.8 | C[C@@H](c1ccc(-c2ccc(F)cc2F)cc1)N1CCC(CCO)(C(C)(C)C)OC1=O (single isomer, unassigned) [EXAMPLE 336 Isomer 1] |
| 97.5 | C[C@@H](c1ccc(Br)cc1)N1CCC(CCO)(c2ccc(F)cc2F)OC1=O (single isomer, unassigned) [EXAMPLE 365 Isomer 1] |

What follows are molecules tested against T1, 11β-HSD1 (assay: biochemical). Settings: IC50 Range.

| SMILES | IC50 [nM] |
| --- | --- |
| C[C@@H](c1ccc(-c2ccc(F)cc2)cc1)N1CC[C@](CC(O)CNS(C)(=O)=O)(c2ccc(F)cc2)OC1=O (single isomer, unassigned) [EXAMPLE 277 Isomer 1] | < 100 |

Same assay, conditions: IC50 Range, Biological Test Example 1; microsomes from CHO cells overexpressing human 11β-HSD1

| SMILES | IC50 [nM] |
| --- | --- |
| CC(C)C1(CC(O)CO)CCN([C@@H](C)c2ccc(-c3ccc(F)cc3F)cc2)C(=O)O1 (single isomer, unassigned) [EXAMPLE 223 Isomer 1] | < 100 |
| CC(C)C1(CC(O)CO)CCN([C@@H](C)c2ccc(-c3ccc(F)cc3F)cc2)C(=O)O1 (single isomer, unassigned) [EXAMPLE 223 Isomer 2] | < 100 |
| CC(C)C1(CC(O)CO)CCN([C@@H](C)c2ccc(-c3ccc(F)cc3F)cc2)C(=O)O1 (single isomer, unassigned) [EXAMPLE 223 Isomer 3] | > 100 |
| CC(C)C1(CC(O)CO)CCN([C@@H](C)c2ccc(-c3ccc(F)cc3F)cc2)C(=O)O1 (single isomer, unassigned) [EXAMPLE 223 Isomer 4] | > 100 |
| C[C@@H](c1ccc(-c2ccc(F)cc2F)cc1)N1CCC(CCO)(c2cccs2)OC1=O (single isomer, unassigned) [EXAMPLE 233 Isomer 1] | < 100 |
| C[C@@H](c1ccc(-c2ccc(F)cc2F)cc1)N1CC[C@](CC(O)CN(C)C)(c2ccc(F)cc2)OC1=O (single isomer, unassigned) [EXAMPLE 273 Isomer 1] | < 100 |
| C[C@@H](c1ccc(-c2ccc(F)cc2F)cc1)N1CC[C@](CC(O)CN(C)C)(c2ccc(F)cc2)OC1=O (single isomer, unassigned) [EXAMPLE 273 Isomer 2] | > 100 |
| C[C@@H](c1ccc(-c2ccc(F)cc2F)cc1)N1CC[C@](CC(O)CNC(N)=O)(c2ccc(F)cc2)OC1=O (single isomer, unassigned) [EXAMPLE 276 Isomer 1] | < 100 |
| C[C@@H](c1ccc(-c2ccc(F)cc2F)cc1)N1CC[C@](CC(O)CNC(N)=O)(c2ccc(F)cc2)OC1=O (single isomer, unassigned) [EXAMPLE 276 Isomer 2] | > 100 |
| C[C@@H](c1ccc(-c2ccc(F)cc2)cc1)N1CC[C@](CC(O)CN(C)S(C)(=O)=O)(c2ccc(F)cc2)OC1=O (single isomer, unassigned) [EXAMPLE 278 Isomer 1] | < 100 |
| COc1ccc([C@H](C)N2CCC(CC(O)CO)(c3ccccc3)OC2=O)cc1 (single isomer, unassigned) [EXAMPLE 286 Isomer 1] | < 100 |
| COc1ccc([C@H](C)N2CCC(CC(O)CO)(c3ccccc3)OC2=O)cc1 (single isomer, unassigned) [EXAMPLE 286 Isomer 2] | < 100 |
| COc1ccc([C@H](C)N2CCC(CC(O)CO)(c3ccccc3)OC2=O)cc1 (single isomer, unassigned) [EXAMPLE 286 Isomer 3] | < 100 |
| COc1ccc([C@H](C)N2CCC(CC(O)CO)(c3ccccc3)OC2=O)cc1 (single isomer, unassigned) [EXAMPLE 286 Isomer 4] | > 100 |
| COc1ccc([C@H](C)N2CCC(CCCO)(C(C)C)OC2=O)cc1 (single isomer, unassigned) [EXAMPLE 332 Isomer 1] | < 100 |

Other lines, results leading:

| IC50 [nM] | SMILES |
| --- | --- |
| > 100 | COc1ccc([C@H](C)N2CCC(CCCO)(C(C)C)OC2=O)cc1 (single isomer, unassigned) [EXAMPLE 332 Isomer 2] |
| < 100 | COc1ccc([C@H](C)N2CCC(CCC(N)=O)(C(C)C)OC2=O)cc1 (single isomer, unassigned) [EXAMPLE 333 Isomer 1] |
| > 100 | COc1ccc([C@H](C)N2CCC(CCC(N)=O)(C(C)C)OC2=O)cc1 (single isomer, unassigned) [EXAMPLE 333 Isomer 2] |
| < 100 | CC(C)C1(CCC(N)=O)CCN([C@@H](C)c2ccc(Cl)cc2)C(=O)O1 (single isomer, unassigned) [EXAMPLE 334 Isomer 1] |
| > 100 | CC(C)C1(CCC(N)=O)CCN([C@@H](C)c2ccc(Cl)cc2)C(=O)O1 (single isomer, unassigned) [EXAMPLE 334 Isomer 2] |
| < 100 | C[C@@H](c1ccc(Br)cc1)N1CCC(CCCO)(C(C)(C)C)OC1=O (single isomer, unassigned) [EXAMPLE 335 Isomer 1] |
| < 100 | C[C@@H](c1ccc(-c2ccc(F)cc2F)cc1)N1CCC(CCO)(C(C)(C)C)OC1=O (single isomer, unassigned) [EXAMPLE 336 Isomer 1] |
| < 100 | C[C@@H](c1ccc(Br)cc1)N1CCC(CCO)(c2ccc(F)cc2F)OC1=O (single isomer, unassigned) [EXAMPLE 365 Isomer 1] |
